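Following 48 hours of exposure in 96-well plates, responses at five concentrations were used to interpolate endpoints linearly. Abbreviation: GI50, concentration required for 50% inhibition of growth. TGI is the concentration that stops growth completely.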
Key:
Experiment in all cases: NCI tumour cell line growth inhibition, 48 h
DU-145 prostate = tested on: DU-145 prostate
HCT-116 colon = tested on: HCT-116 colon
MALME-3M melanoma = tested on: MALME-3M melanoma
OVCAR-8 ovarian = tested on: OVCAR-8 ovarian
RPMI-8226 leukemia = tested on: RPMI-8226 leukemia
SK-OV-3 ovarian = tested on: SK-OV-3 ovarian
SNB-19 CNS = tested on: SNB-19 CNS
UACC-62 melanoma = tested on: UACC-62 melanoma
NCI-H226 lung = tested on: NCI-H226 lung
RXF 393 renal = tested on: RXF 393 renal

SMILES	TGI (DU-145 prostate) [µM]	TGI (HCT-116 colon) [µM]	TGI (MALME-3M melanoma) [µM]	TGI (OVCAR-8 ovarian) [µM]	TGI (RPMI-8226 leukemia) [µM]	TGI (SK-OV-3 ovarian) [µM]	TGI (SNB-19 CNS) [µM]	TGI (UACC-62 melanoma) [µM]	GI50 (HCT-116 colon) [µM]	GI50 (MALME-3M melanoma) [µM]	GI50 (NCI-H226 lung) [µM]	TGI (NCI-H226 lung) [µM]	GI50 (OVCAR-8 ovarian) [µM]	GI50 (RXF 393 renal) [µM]	TGI (RXF 393 renal) [µM]	GI50 (SK-OV-3 ovarian) [µM]	GI50 (SNB-19 CNS) [µM]	GI50 (DU-145 prostate) [µM]	GI50 (RPMI-8226 leukemia) [µM]	GI50 (UACC-62 melanoma) [µM]
CC(C)(C(=O)NN)c1ccccc1	> 100	> 100	> 100	> 100	> 100	> 100	> 100	> 100												
CC12CCC(=O)C(O1)C1C(=O)c3cc4ccccc4cc3C(=O)C12 (stereo not given)		34.6	29.5	54.9		> 100	> 100		17.7	12.9	14.4	41.9	22.1	2.5	14.6	46.6	38.1			
NC(=O)OCC(COc1ccc(Cl)cc1)OC(=O)c1ccccc1Cl (stereo not given)		30.7	48.6	54.3	51.6	> 100	97.7	31.4				60.2			25.7					
COc1cc(/C=C\c2ccccn2)cc(OC)c1OC		> 100	> 100	> 100	> 100		> 100	> 100				> 100			> 100					
O=C1C(Cl)=C(N/N=c2/[nH][nH]/c(=N/NC3=C(Cl)C(=O)c4ccccc4C3=O)c3ccccc23)C(=O)c2ccccc21	33.6	32.3		35	44.1	29.5	31.1		14.3		17.8	44	15.4			15.3	14.6	17.8	10.1	
CCOP(=O)(OCC)C1CCCCOC1=O (stereo not given)		> 100	> 100	> 100	> 100	> 100	> 100	> 100							> 100					
COc1cccc(OC(=O)c2ccccc2Nc2ccnc(C(F)(F)F)c2)c1		3.07		29.3	3.86		> 100	33.9	1.12		8.09	77.3	3.63	20.7	59.6		3.52		1.01	3.09
C=C1C(=O)OC2CC3(C)C=CC(=O)C(=C)C3CC12 (stereo not given)		2.54	4.02	4.92	3.22	42.1	21.3	2.92				25.8			4.46					
Nc1cc(=O)[nH]c(SC2=NC(N)CC(O)C2)n1 (stereo not given)			> 100	> 100	> 100	> 100	> 100	> 100				> 100								
CC1CC2C(=O)NC(=O)C2c2[nH]c3ccccc3c21 (stereo not given)		> 100	> 100	> 100	> 100	> 100						> 100								
Cc1ccc2c(c1)C1(C)OC(CC(N)C1O)O2 (stereo not given)		> 100	> 100	> 100	> 100	> 100	> 100	> 100				> 100			> 100					
COC12C=CC(CC1)c1c(O)ccc(O)c12 (stereo not given)		> 100	> 100	> 70.1	> 100	> 100	> 100	> 100				> 100			> 100					
COC(=O)CCC(=O)N1Cc2cc(C)ccc2N(C(=O)CCC(=O)OC)Cc2cc(C)ccc21		> 100		> 100	> 100	> 100		> 100				> 100			> 100					
CCN=C1C=CC(=C(c2ccc(N(C)C)cc2)c2ccc(N(C)C)cc2)c2ccccc21	0.357	0.174	0.0855	1.7	0.0555	0.455	4.21		0.0358	0.026			0.0816			0.105	0.217	0.0829	0.0165	
CCN1C(=O)N(CC)C2C1NN=c1s/c(=C3\C(=O)N(C(C)C)c4ccccc43)c(=O)n12 (stereo not given)	3.13	> 100	> 100	> 53.4	> 100	12.1	> 100	> 36.2	0.377	1.18	0.441	23.2	0.62			0.403	0.44	0.377	0.429	0.466
C=CCC(N[C@H](CO)C(C)C)c1cn(C(=O)OCC)c2ccccc12 (stereo not given in full)	> 100	68.8		48.2	40.7	> 100	> 100	54.8	24.2				21.7	18.9	54.2	81.3	59.9	30.1	13.3	22.7
CN(C)CCCNC(=O)c1cc(NC(=O)CCNS(=O)(=O)c2ccc3c(c2)C(=O)c2ccccc2C3=O)cn1C		> 100		> 100	> 100	> 100	> 100	> 100	> 100		> 100	> 100	> 100	> 100	> 100	> 100	> 100		> 100	> 100
C=C1C(=O)O[C@H]2C[C@@H](C)[C@@H]3CC(=O)OC[C@@]3(C)CC12 (stereo not given in full)		> 100	35	48.3	75.2	> 100	> 100	51.9												
O=C(CC1Sc2ccccc2NC1=O)Nc1cc(Cl)ccc1Cl (stereo not given)		> 100	> 100	> 100	> 100		> 100	> 100				> 100			> 100					
COC(=O)c1[nH]c(=S)[nH]c(=O)c1-c1ccc(Cl)cc1		> 50	> 50	> 50	> 50	> 50	> 50	> 50				> 50			> 50					

Reference: PubChem BioAssay (NCI)
